Key:
[1] = tested on: COS-7 cells expressing EGFP fused to 19 alanines (A19); assay: Aggregate formation and abnormal cell nuclei in transiently transfected COS-7 cells expressing A19; format: cell-based, African green monkey; conditions: for cell death (abnormal nuclei) in A19-expressing cells / proportions of A19-expressing cells with aggregates / appearance (size, number) of A19 aggregates in cells with aggregates: 48 hours after transfection; for cell death (abnormal nuclei) in A19-expressing cells: drug for 15 hours before fixing, same concentrations; for cell death (abnormal nuclei) in A19-expressing cells / proportions of A19-expressing cells with aggregates: vs untreated; for proportions of A19-expressing cells with aggregates: drug for 15 hours before fixing: 10 mM 3-MA, 0.5 mM DMA, 200 nM BafA1, 0.2 μg/ml rapamycin, 10 μM epoxomicin; for appearance (size, number) of A19 aggregates in cells with aggregates: immunofluorescence, drug 15 hours
Description: (§1) Mammalian expression vectors comprising EGFP (pEGFP-C1, Clontech) fused at its C-terminus with a Huntington's Disease gene exon 1 fragment with 74 polyglutamine repeats (Q74) or a polyalanine stretch of 19 repeats (A19) were used (Rankin, J. et al (2000) Biochem. J., 348, 15-19; Narain, Y. et al (1999) J. Med. Genet., 36, 739-746.). A Haemagglutinin-tagged Huntington's Disease gene exon 1 fragment with 74 polyglutamine repeats in pHM6 vector (Q74-HA) was also used. The PC12 stable lines expressing exon 1 of Huntington gene were as described in Wyttenbach A. et al., (2001) Hum. Mol. Genet. 10 1829-45.
(§2) African green monkey kidney cells (COS-7) were grown in Dulbecco's Modified Eagle Medium (DMEM, Sigma) supplemented with 10% Fetal Bovine Serum (FBS), 100 U/ml Penicillin/Streptomycin, 2 mM L-Glutamine and 1 mM Sodium Pyruvate at 37° C., 5% Carbon dioxide. The cells were grown on coverslips in six-well plates for immunofluorescence analysis, or were directly grown in six-well plates to 60-80% confluency for 24 hours for western blot analysis. Transfection was done using LipofectAMINE reagent (Invitrogen) using the manufacturer's protocol. The transfection mixture was replaced by normal culture medium after 5 hours incubation at 37° C. and the transfected cells were analysed by immunofluorescence or immunoblot 48 hours after transfection. The cells were left untreated or treated with 10 mM 3-methyl adenine (3-MA, Sigma), 0.5 mM N^6, N^6, Dimethyl adenosine (DMA, Sigma), 0.2 μg/ml Rapamycin (Sigma), 200 nM Bafilomycin A1 (BafA1, Sigma), 10 μM Lactacystin (Sigma) or 10 μM epoxomicin (Affinity research products ltd.) for 15 hours before fixation for immunofluorescence or processing for western blots. DMA, BafA1, epoxomicin and rapamycin were dissolved in DMSO and 3-MA and lactacystin were in water. Equal amounts of water or DMSO were added to the untreated controls, where relevant. The cells on coverslips were rinsed with 1×PBS, fixed with 4% paraformaldehyde in 1×PBS for 20 min and mounted in antifadent supplemented with 4′,6-diamidino-2-phenylindole (DAPI, 3 μg/ml, Sigma) to allow visualisation of nuclear morphology. The PC12 stable cells were maintained at 75 μg/ml hygromycin in standard medium consisting of high glucose DMEM (Sigma) with 100 U/ml penicillin/streptomycin, 2 mM L-glutamine (Invitrogen), 10% heat-inactivated horse serum (Invitrogen), 5% Tet-approved fetal bovine serum (FBS) (Clontech) and 100 μg/ml G418 (Invitrogen) at 37° C., 10% CO2. The cells were seeded at 1-2×10^5 per well in 6-well plates and were induced with 1 μg/ml doxycycline (Sigma) for 8 hours. The expression of transgenes was switched off by removing doxycycline from the medium. Cells were either left untreated or treated with 3-MA, BafA1, epoxomicin, lactacystin, rapamycin, 10 μg/ml cycloheximide (Sigma) or cycloheximide+rapamycin at the concentrations specified above for 24, 48 or 72 hours and the medium with the inhibitors/activator changed every 24 hours. The cells were then scraped off from the wells into 1.5 ml eppendorf tubes, pelleted at 8000 rpm and washed twice with 1×PBS. They were either fixed with 4% paraformaldehyde for 20 minutes and mounted in DAPI over coverslips on glass slides or processed for western blot analysis. CCI-779 was supplied by Wyeth Pharmaceuticals (Philadelphia). For tissue culture experiments, a stock solution of 1M in ethanol was prepared the day of experiment and was diluted in the appropriate medium
(§3) The pellets for westerns from COS-7 or PC12 cells were lysed on ice in Laemmli buffer (62.5 mM Tris-HCl pH6.8, 5% β-mercaptoethanol, 10% glycerol, and 0.01% bromophenol blue) for 30 min in the presence of protease inhibitors (Roche Diagnostics). The lysates were subjected to SDS-PAGE (10%) electrophoresis and proteins transferred onto nitrocellulose membrane (Amersham Pharmacia Biotech). […]

[2] = tested on: COS-7 cells expressing an exon 1 fragment of the HD gene with 74 glutamines (Q74); assay: Aggregate formation and abnormal cell nuclei in transiently transfected COS-7 cells expressing Q74; format: cell-based, African green monkey; conditions: for cell death (apoptotic nuclear morphology) in Q74-expressing cells / proportions of Q74-expressing cells with aggregates / appearance (size, number) of Q74 aggregates in cells with aggregates: 48 hours after transfection; for cell death (apoptotic nuclear morphology) in Q74-expressing cells: drug for 15 hours before fixing, same concentrations; for cell death (apoptotic nuclear morphology) in Q74-expressing cells / proportions of Q74-expressing cells with aggregates: vs untreated; for proportions of Q74-expressing cells with aggregates: drug for 15 hours before fixing: 10 mM 3-MA, 0.5 mM DMA, 200 nM BafA1, 0.2 μg/ml rapamycin, 10 μM epoxomicin, 10 μM lactacystin; for appearance (size, number) of Q74 aggregates in cells with aggregates: immunofluorescence, drug 15 hours
Description: as §1, §2, §3

[3] = tested on: PC12 cell line expressing EGFP-tagged HD exon 1 with Q74; assay: Turnover of Q74 protein and aggregates in stable doxycycline-inducible PC12 cells after switching expression off; format: cell-based, rat; conditions: for numbers of aggregate containing cells / visible aggregates: vs time-matched control; for aggregate formation as high molecular weight fraction on the stack (western blot): 72 hours after switching off the expression, vs time-matched untreated controls
Procedure: as §2
The pellets for westerns from COS-7 or PC12 cells were lysed on ice in Laemmli buffer (62.5 mM Tris-HCl pH6.8, 5% β-mercaptoethanol, 10% glycerol, and 0.01% bromophenol blue) for 30 min in the presence of protease inhibitors (Roche Diagnostics). The lysates were subjected to SDS-PAGE (10%) electrophoresis and proteins transferred onto nitrocellulose membrane (Amersham Pharmacia Biotech). The primary antibodies used include mouse monoclonal anti-GFP antibody (8362-1, Clontech) at 1:2000, rabbit monoclonal anti-actin antibody (A2066, Sigma) at 1:3000, mouse monoclonal anti-tubulin antibody (Clone DM 1A, Sigma) at 1:1000 and mouse monoclonal anti-HA antibody (Covance) at 1:1000. Blots were probed with Horse Radish Peroxidase (HRP) conjugated anti-mouse or anti-rabbit IgG (Bio Rad) at 1:2000. Bands were visualised using the ECL detection reagent (Amersham). […]

Row | Compound | cell death (abnormal nuclei) in A19-expressing cells [1] | proportions of A19-expressing cells with aggregates [1] | appearance (size, number) of A19 aggregates in cells with aggregates [1] | levels of the transgene protein (EGFP-A19) ([1]; western blot, 10 mM 3-MA) | cell death (apoptotic nuclear morphology) in Q74-expressing cells [2] | proportions of Q74-expressing cells with aggregates [2] | appearance (size, number) of Q74 aggregates in cells with aggregates [2] | levels of an HA-tagged version of the HD exon 1 fragment with Q74 ([2]; western blot, 10 mM 3-MA) | levels of the transgene protein (EGFP-Q74) ([2]; western blot, 10 mM 3-MA) | numbers of aggregate containing cells / visible aggregates ([3]; 8 h ON then 72 h OFF with drug) | aggregate formation as high molecular weight fraction on the stack (western blot) [3] | cellular fluorescence ([3]; 8 h ON then 48 h OFF with 10 μM epoxomicin) | number of aggregate-containing cells ([3]; 8 h ON then 48 h OFF with 10 μM epoxomicin or 10 μM lactacystin, vs control) | heat shock protein 70 ([3]; epoxomicin treatment) | cell fluorescence (EGFP-Q74 clearance) ([3]; 8 h ON then 72 h OFF with drug, 0.2 μg/ml rapamycin, 10 μg/ml cycloheximide) | Q74 protein levels on a western blot ([3]; 8 h ON, then OFF with 0.2 μg/ml rapamycin, vs untreated control)
1 | Cn1cnc(N)c2ncnc1-2 [3-MA, 3-methyl adenine] | increase | increased | increased their apparent size and number | increase | increase | increased | increased their apparent size and number | increase | increase | increased | increased aggregate formation |  |  |  |  | 
2 | CO/C1=C\C(C)=C\[C@@H](C)[C@@H](O)[C@@H](C)C/C(C)=C/C=C/[C@H](OC)[C@@H]([C@@H](C)[C@@H](O)[C@H](C)[C@@]2(O)C[C@@H](O)[C@H](C)[C@@H](C(C)C)O2)OC1=O [BafA1, Bafilomycin A1] | increase | increased | increased size |  | increase | increased | increased size |  |  | increased | increased aggregate formation |  |  |  |  | 
3 | CC[C@H](C)[C@H](NC(=O)[C@H]([C@@H](C)CC)N(C)C(C)=O)C(=O)N[C@H](C(=O)N[C@@H](CC(C)C)C(=O)[C@@]1(C)CO1)[C@@H](C)O [epoxomicin] |  | increase | more aggregates in each aggregate-containing cell |  | did not affect | did not affect | more aggregates in each aggregate-containing cell |  |  |  |  | obvious increase | reduction | marked increase |  | 
4 | rapamycin | decrease | decrease |  |  | no significant change | no significant change |  |  |  |  |  |  |  |  | loss of fluorescence | decrease

From patent US20070155771A1, “Methods and means for treating protein conformational disorders” (priority 2003, published 2007)
